According to patent US20090311217A1, “3-SUBSTITUTED-1H-INDOLE COMPOUNDS, THEIR USE AS MTOR KINASE AND PI3 KINASE INHIBITORS, AND THEIR SYNTHESES” (priority 2008, published 2009):
Read-outs that look alike come from different tables or passages of the source.

Key:
human TOR = biological target: T1, human TOR (Homo sapiens, UniProt P42345); test: mTOR enzyme assay (DELFIA, His6-S6K substrate); type: biochemical; conditions: read-out: mTOR Kinase Avg. IC50
T1 construct: FLAG

PI3K-gamma = PI3K-gamma (Homo sapiens, UniProt P48736); test: PI3K-gamma fluorescence polarization assay; type: biochemical; conditions: PI3Kγ Avg. IC50
PI3K-gamma, sequence (P48736 whole entry, species assumed, the tested form may be a part): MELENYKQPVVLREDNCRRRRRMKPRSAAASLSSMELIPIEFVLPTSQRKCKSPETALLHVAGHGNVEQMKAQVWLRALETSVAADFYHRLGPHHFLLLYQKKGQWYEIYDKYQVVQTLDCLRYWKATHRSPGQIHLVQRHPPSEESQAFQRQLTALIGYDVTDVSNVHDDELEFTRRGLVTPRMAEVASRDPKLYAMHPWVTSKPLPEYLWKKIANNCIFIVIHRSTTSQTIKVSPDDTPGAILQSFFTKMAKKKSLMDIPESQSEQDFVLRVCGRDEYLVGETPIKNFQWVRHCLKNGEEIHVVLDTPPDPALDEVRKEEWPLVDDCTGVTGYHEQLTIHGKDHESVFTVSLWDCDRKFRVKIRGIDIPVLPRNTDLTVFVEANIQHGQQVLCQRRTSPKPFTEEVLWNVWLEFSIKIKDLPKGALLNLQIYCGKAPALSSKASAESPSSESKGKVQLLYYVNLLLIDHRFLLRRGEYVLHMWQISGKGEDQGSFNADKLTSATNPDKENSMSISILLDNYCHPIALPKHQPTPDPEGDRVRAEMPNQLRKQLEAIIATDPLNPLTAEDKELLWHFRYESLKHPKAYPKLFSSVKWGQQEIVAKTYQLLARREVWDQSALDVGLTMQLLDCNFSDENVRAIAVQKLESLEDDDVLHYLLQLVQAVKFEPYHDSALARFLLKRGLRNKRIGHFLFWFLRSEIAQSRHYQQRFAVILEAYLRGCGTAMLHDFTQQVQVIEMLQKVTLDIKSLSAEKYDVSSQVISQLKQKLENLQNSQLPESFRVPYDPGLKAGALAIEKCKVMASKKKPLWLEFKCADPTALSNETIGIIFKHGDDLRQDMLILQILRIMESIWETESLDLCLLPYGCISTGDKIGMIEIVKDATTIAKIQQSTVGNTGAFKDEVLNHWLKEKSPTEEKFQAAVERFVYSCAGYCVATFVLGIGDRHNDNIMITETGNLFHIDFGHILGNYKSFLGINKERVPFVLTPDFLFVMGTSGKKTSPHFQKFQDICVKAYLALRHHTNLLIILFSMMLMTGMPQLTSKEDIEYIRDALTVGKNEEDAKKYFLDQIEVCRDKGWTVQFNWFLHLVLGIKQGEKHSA
In short: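 Reactions in 5 mM HEPES pH 7, 2.5 mM MgCl2, 25 μM ATP with 2.5 μM diC8-PI(4,5)P2 and 5 ng enzyme, 1 h at 25° C, then EDTA quench. Product detected by FP using GST-GRP1 PH domain (100 nM) and BODIPY-TMR-IP4 tracer (5 nM); final DMSO 0.8%.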

PI3K-alpha = PI3K-alpha (Homo sapiens, UniProt P42336); test: PI3K-alpha fluorescence polarization assay; type: biochemical; conditions: read-out: PI3Kα Avg. IC50
PI3K-alpha, sequence (P42336 whole entry, species assumed): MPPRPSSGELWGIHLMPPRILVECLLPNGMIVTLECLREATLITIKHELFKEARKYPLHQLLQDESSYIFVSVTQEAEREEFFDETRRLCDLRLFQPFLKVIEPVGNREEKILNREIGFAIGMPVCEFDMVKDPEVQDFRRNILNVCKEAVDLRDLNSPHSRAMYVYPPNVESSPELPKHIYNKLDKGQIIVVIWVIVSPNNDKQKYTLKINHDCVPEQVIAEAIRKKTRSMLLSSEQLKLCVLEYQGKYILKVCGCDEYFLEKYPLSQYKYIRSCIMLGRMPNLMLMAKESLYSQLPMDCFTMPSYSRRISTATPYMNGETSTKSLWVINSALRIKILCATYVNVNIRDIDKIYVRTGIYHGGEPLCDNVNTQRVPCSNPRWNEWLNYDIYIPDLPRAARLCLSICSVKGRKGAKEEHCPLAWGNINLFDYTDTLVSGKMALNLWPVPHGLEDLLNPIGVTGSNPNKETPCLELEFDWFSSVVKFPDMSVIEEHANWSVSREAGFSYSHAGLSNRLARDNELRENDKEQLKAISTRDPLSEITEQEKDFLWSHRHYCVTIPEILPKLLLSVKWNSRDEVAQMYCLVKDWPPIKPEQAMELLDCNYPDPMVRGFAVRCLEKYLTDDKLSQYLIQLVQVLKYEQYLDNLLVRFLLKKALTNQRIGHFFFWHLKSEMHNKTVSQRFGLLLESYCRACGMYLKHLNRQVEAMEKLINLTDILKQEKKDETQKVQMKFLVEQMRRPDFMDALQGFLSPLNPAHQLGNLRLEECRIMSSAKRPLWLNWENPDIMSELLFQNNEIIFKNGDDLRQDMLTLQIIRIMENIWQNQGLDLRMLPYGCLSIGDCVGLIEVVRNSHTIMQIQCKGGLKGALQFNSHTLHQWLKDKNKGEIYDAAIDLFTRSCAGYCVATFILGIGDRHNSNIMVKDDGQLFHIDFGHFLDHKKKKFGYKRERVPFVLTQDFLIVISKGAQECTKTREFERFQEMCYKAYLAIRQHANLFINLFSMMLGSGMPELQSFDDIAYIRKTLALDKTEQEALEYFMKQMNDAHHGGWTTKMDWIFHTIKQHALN
PI3K-alpha, sequence (P27986 whole entry partner, species assumed): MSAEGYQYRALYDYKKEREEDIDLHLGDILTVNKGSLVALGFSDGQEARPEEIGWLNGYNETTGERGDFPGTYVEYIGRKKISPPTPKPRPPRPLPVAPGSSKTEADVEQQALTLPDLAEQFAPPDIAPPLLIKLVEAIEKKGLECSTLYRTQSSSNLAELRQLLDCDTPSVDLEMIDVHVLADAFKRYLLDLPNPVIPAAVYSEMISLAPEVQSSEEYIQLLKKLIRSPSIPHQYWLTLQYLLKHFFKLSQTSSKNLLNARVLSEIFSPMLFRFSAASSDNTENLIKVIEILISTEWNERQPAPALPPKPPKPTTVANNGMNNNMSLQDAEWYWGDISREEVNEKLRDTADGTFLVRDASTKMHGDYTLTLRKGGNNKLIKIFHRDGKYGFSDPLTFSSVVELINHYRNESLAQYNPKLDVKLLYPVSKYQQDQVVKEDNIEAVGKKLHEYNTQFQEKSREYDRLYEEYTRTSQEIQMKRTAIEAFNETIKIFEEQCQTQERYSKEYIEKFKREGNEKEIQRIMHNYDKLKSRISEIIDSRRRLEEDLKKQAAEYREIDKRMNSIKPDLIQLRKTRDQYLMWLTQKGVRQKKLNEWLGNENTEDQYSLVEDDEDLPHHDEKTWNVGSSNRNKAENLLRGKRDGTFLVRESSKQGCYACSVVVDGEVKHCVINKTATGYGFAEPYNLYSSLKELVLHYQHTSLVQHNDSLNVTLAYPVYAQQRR

[1] = test system: human tumor xenograft models; conditions: cited from earlier work
[2] = test system: acute lymphoblastic leukemia; conditions: in vivo; cited from earlier work
mTOR = mTOR (Homo sapiens, UniProt P42345); conditions: mTOR enzymes; cited from earlier work

SMILES: COc1cc(O)c2c(c1)O/C(=C\c1c(-c3ccccc3)n(C)c3ccccc13)C2=O [Example 421, (2Z)-4-hydroxy-6-methoxy-2-[(1-methyl-2-phenyl-1H-indol-3-yl)methylene]benzofuran-3(2H)-one]
- IC50 (human TOR): > 20 µM
- IC50 (PI3K-gamma): > 10 µM
- IC50 (PI3K-alpha): > 10 µM
- melting point: 221 to 223 °C

SMILES: Cn1c(=O)n(-c2ccc(C(C)(C)C#N)cc2)c2c3cc(-c4cnc5ccccc5c4)ccc3ncc21 [NVP-BEZ-235, 2-methyl-2-(4-(3-methyl-2-oxo-8-(quinolin-3-yl)-2,3-dihydro-1H-imidazo[4,5-c]quinolin-1-yl)phenyl)propanenitrile]
- activity in human tumor xenograft models ([1]; prostrate (PC-3) and glioblastoma (U-87)): demonstrated activity

SMILES: Oc1cccc(-c2nc(N3CCOCC3)c3oc4ncccc4c3n2)c1 [PI103, 3-(4-(4-morpholinyl)pyrido[3′,2′:4,5]furo[3,2-d]pyrimidin-2-yl)phenol]
- activity in human tumor xenograft models ([1]; I.P. dosing in mice, U87MG, PC3, MDA-MB-468, MDA-MB-435, HCT 116, SKOV3, IGROV-1): demonstrated activity

SMILES: CO[C@H]1C[C@@H]2CC[C@@H](C)[C@@](O)(O2)C(=O)C(=O)N2CCCC[C@H]2C(=O)O[C@H]([C@H](C)C[C@@H]2CC[C@@H](OC(=O)C(C)(CO)CO)[C@H](OC)C2)CC(=O)[C@H](C)/C=C(\C)[C@@H](O)[C@@H](OC)C(=O)[C@H](C)C[C@H](C)/C=C/C=C/C=C/1C [Torisel]
- activity in NOS/SCID xenograft mouse model of acute lymphoblastic leukemia [2]: active

SMILES: FC(F)c1nc2ccccc2n1-c1nc(N2CCOCC2)nc(N2CCOCC2)n1 [ZSTK474, 2-(2-difluoromethylbenzoimidazol-1-yl)-4,6-dimorpholino-1,3,5-triazine]
- tumor growth in mouse human xenograft cancer models ([1]; chronic oral administration, 400 mg/kg, A549, PC-3, WiDr): completely inhibited growth
- IC50 (mTOR): > 10 µM
